# From patent US7132258B1, “Nucleic acid encoding vitamin D receptor related polypeptide” (University of Massachusetts, priority 1998, dated 2006)
# Entries after “also recorded” stand apart in the source; their conditions may differ.
# Test system: RAC3 message
# Test: Northern blot analysis of RAC3 expression in HL-60 cells
# Type: cell-based, human
# Method: The expression of RAC3 was examined with Northern blot analysis using standard methods. A single message of about 7.5 kb was detected in human HL60 cells as well as in mouse embryonic tissues. […] Thus, a positive feedback regulatory network may operate in which RAC3 binding to RA-RAR complex activates transcription which, in turn, increases transcription of RAC3.
# Cells were treated with different concentration of RA (0, 10, 100, 1000 nM) for a period of 12 hours. In the control group, cells were treated with equal volume of solvent (80% EtOH plus 20% DMSO). Total RNAs were isolated using an RNA isolation kit (RNAzol) and separated on a 1% agarose gel with 2.2 M formaldehyde and blotted onto nylon filters. Filters were hybridized with random-primed ^32P-labeled DNA probes specific for RAC3, Tw2, and SRC1 in hybridization buffer (50% formamide, SX SSPE [1×SSPE is 0.18 M NaCl, 10 mM NaPO4, and 1 mM EDTA at pH 7.7], 2× Denhardt solution, 0.1% SDS, 0.1 mg of sheared herring sperm DNA per ml) at 42° C. overnight. […]
# The expression patterns of RAC3 in different human tissues and cancer cells were examined and compared with that of SRC-1 and TIF2. […] Total RNA (20 μg) of HL-60 cells treated with indicated concentrations of atRA for 12 hours or with 1 μM tRA plus 10 μM cycloheximide (CHX) were analyzed for RAC3 message by Northem blot analysis. […]
SMILES,expression of RAC3 (HL60 cells treated with atRA),"effect on stimulation of RAC3 expression by atRA (HL60 cells, addition of cycloheximide)"
"CC1=C(/C=C/C(C)=C/C=C/C(C)=C/C(=O)O)C(C)(C)CCC1 [atRA, all-trans retinoic acid]",up-regulated; also recorded: significantly enhances,
C[C@@H]1C[C@@H]([C@H](O)CC2CC(=O)NC(=O)C2)C(=O)[C@@H](C)C1 [cycloheximide],,does not have an effect
